Reference: patent publication US20230118497A1, “PYRAZOLE-CONTAINING POLYCYCLIC DERIVATIVE INHIBITOR, PREPARATION METHOD THEREFOR AND APPLICATION THEREOF” (Shanghai Hansoh Biomedical Co., Ltd., priority 2019, published 2023)

Assays:
1321N1-hP2X3 receptor = biological target: T1, 1321N1-hP2X3 receptor (Homo sapiens, UniProt P56373); test: Calcium ion mobility (FLIPR) in cells stably expressing 1321N1-hP2X3 receptors; assay type: cell-based; conditions: calcium signal, agonist at EC80
T1 construct: host or cells: 1321N1
T1 sequence (P56373 1-397): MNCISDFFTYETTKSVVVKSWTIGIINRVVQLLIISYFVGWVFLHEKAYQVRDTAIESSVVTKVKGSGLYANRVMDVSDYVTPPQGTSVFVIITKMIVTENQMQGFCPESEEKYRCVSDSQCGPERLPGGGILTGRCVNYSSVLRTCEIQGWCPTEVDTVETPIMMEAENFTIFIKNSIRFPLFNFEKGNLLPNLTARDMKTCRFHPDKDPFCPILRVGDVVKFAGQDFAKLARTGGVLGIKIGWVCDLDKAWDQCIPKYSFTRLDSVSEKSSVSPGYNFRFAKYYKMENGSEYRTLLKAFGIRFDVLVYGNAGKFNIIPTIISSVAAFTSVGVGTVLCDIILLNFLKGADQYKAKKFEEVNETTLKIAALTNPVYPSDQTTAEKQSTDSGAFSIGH
Description: Test Example 1. Determination of the Effect of the Compounds of the Present Invention on Calcium Ion Mobility in Cells Stably Expressing 1321N1-hP2X3 Receptors
To determine the inhibitory activity of the compounds on 1321N1-hP2X3 receptor.
Stably transfected cell line: 1321N1-hP2X3 (supplied by Shanghai ChemPartner Chemical Research Co., Ltd.).
(§1) Assay buffer: 1*HBSS+20 mM HEPES;
Cell culture medium: DMEM+10% FBS+75 µg/mL Hygromycin B+300 µg/mL G418;
(§2) Plating medium: DMEM+10% DPBS;
(§3) 0.5*Dye: 10*Dye stock+1.25 Probenecid+1*assay buffer+0.5 U/mL ATP hydrolytic enzyme;
(§4) 2. The cells were cultured to 70%-90% confluency in the cell culture medium at 37° C., 5% CO2. The medium was discarded, and the cells were added with 2 mL of Versene, and the cells were placed in an incubator at 37° C. for 2 to 5 min. The cells were collected by addition of 10 mL of plating medium and counted. The cells were seeded to the 384-well assay plate by addition of 50 μL solution (a density of 1×10^4 cells/well) to each well, and incubated for 16 to 24 hours (at least overnight).
(§5) 3. The medium was discarded, and 30 μL of 1× dye was added. The cells were incubated at 37° C. in the dark for 60 min.
(§6) 4. The compound powder was dissolved in DMSO to obtain a 20 mM stock solution. 180× compound with required concentration was formulated, and diluted in gradient for concentration points.
(§7) 5. Preparation of compound plate: 500 nL of 180× compound was transferred to the compound plate (source plate for FLIPR) using ECHO. 30 μL of assay buffer was added to each well, and the plate was shaken gently for 20 to 40 minutes.
(§8) 6. Determination: 15 μL of 3× compound was taken from each well and added to the cell plate. The samples were added by FLIPR instrument, and the calcium signals were detected. After 15 minutes, 22.5 μL of 3× agonist (EC80 concentration) was added to each well and the calcium signals were detected.
(§9) The calcium signal values were determined by FLIPR. The ratio of the 340/510 nm wavelength signals to 380/510 nm wavelength signals was used as the calculated results for each sampling time point in the experiment. The calculation of maximum minus minimum was derived from the ratio signal curve.
(§10) The percent inhibition rate and ten-point concentration data were fitted to the parametric nonlinear logistic equation by using GraphPad prism to calculate the IC50 values of the compounds.

1321N1-hP2X2/3 receptor = biological target: T2, 1321N1-hP2X2/3 receptor (Homo sapiens, UniProt P56373+Q9UBL9); test: Calcium ion mobility (FLIPR) in cells stably expressing 1321N1-hP2X2/3 receptors; assay type: cell-based; conditions: calcium signal, agonist at EC80
T2 construct: host or cells: 1321N1
T2 sequence (P56373 1-397): T1 sequence (P56373 1-397)
T2 sequence (Q9UBL9 1-471): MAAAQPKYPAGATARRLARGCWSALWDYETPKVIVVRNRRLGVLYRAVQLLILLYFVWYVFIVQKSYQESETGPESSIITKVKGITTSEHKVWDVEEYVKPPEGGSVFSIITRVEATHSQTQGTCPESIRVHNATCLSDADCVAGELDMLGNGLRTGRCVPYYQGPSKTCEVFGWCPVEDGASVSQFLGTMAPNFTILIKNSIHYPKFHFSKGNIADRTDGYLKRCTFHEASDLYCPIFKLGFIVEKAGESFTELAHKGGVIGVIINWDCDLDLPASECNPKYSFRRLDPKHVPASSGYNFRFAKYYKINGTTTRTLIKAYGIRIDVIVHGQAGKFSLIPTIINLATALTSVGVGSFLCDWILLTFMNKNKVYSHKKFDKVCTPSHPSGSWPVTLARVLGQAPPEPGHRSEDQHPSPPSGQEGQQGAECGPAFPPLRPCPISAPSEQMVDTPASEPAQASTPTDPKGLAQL
Description: Test Example 2. Determination of the Effect of the Compounds of the Present Invention on Calcium Ion Mobility in Cells Stably Expressing 1321N1-hP2X2/3 Receptors
To determine the inhibitory activity of the compounds on 1321N1-hP2X2/3 receptor.
Stably transfected cell line: 1321N1-hP2X2/3 (supplied by Shanghai ChemPartner Chemical Research Co., Ltd.).
as §1
Cell culture medium: DMEM+10% FBS+75 μg/mL Hygromycin B+150 μg/mL G418;
as §2, §3, §4, §5, §6, §7, §8, §9, §10

P2X3/P2X2/3 = conditions: background; cited from earlier work
[1] = clinical stage; cited from earlier work
[2] = Pharmacokinetic assay in Balb/C mice; assay type: in vivo; conditions: male, mouse, po, p.o. 5 mg/kg, plasma, 0.5% CMC-Na (1% Tween 80)
Description: Test Example 3. Pharmacokinetic Assay in Balb/C Mice
Balb/C mice were used as test animals. The pharmacokinetic behavior of the compounds of Examples was studied in mouse body (plasma) by orally administration at a dose of 5 mg/kg.
Male Balb/C mice (6 mice per group), purchased from Shanghai Jiesijie Laboratory Animal Co., LTD, with Certificate No.: SCXK (Shanghai) 2013-0006 N0.311620400001794.
5 g of hydroxyethyl cellulose (HEC, CMC-Na, viscosity: 800-1200 Cps) was weighed and dissolved in 1000 mL of purified water, followed by addition of 10 g of Tween80.
After an overnight fast, male Balb/C mice were administered p.o. with the test compound at a dose of 5 mg/kg and a volume of 10 mL/kg.
0.04 mL of blood was taken from the orbit of the mouse before administration and at 0, 0.5, 1, 2, 4, 6, 8 and 24 hours after administration. The samples were stored in EDTA-K2 tubes, and centrifuged for 6 minutes at 4° C., 6000 rpm to separate the plasma. The plasma samples were stored at −80° C.
1) 160 μL of acetonitrile was added to 20 μL of the plasma sample for precipitation, and then the mixture was centrifuged at 3500×g for 5 to 20 minutes. 2) After the above process, 100 μL of the supernatant was taken to analyze the concentration of the test compound by LC/MS/MS.
2.7 Liquid Chromatography Analysis • Liquid chromatography condition: Shimadzu LC-20AD pump • Mass spectrometry condition: AB Sciex API 4000 mass spectrometer • Chromatographic column: phenomenex Gemiu 5 um C18 50×4.6 mm • Mobile phase: Eluent A was 0.1% formic acid in water, and Eluent B was acetonitrile • Flow rate: 0.8 mL/min • Elution time: 0-4.0 minutes the eluent is as follows:
The main parameters of pharmacokinetics were calculated by WinNonlin 8.2.

Compound	IC50 (1321N1-hP2X3 receptor) [nM]	IC50 (1321N1-hP2X2/3 receptor) [nM]	also measured
Cc1cc(-c2cc3n(CC(=O)Nc4ccc(F)cn4)c(=O)c4cccnc4n3n2)c(C)cn1 [Example 21]	305		
Cc1cnccc1-c1cc2n(CC(=O)Nc3ccc(F)cn3)c(=O)c3ccc(C(F)(F)F)nc3n2n1 [Example 63, N-(5-Fluoropyridin-2-yl)-2-(2-(3-methylpyridin-4-yl)-5-oxo-8-(trifluoromethyl)pyrazolo[1,5-a]pyrido[3,2-e]pyrimidin-4(5H)-yl)acetamide]	238		
Cc1ncccc1-c1cc2n(CC(=O)Nc3ccc(F)cn3)c(=O)c3ccc(C(F)(F)F)nc3n2n1 [Example 64, N-(5-Fluoropyridin-2-yl)-2-(2-(2-methylpyridin-3-yl)-5-oxo-8-(trifluoromethyl)pyrazolo[1,5-a]pyrido[3,2-e]pyrimidin-4(5H)-yl)acetamide]	149		
O=C(Cn1c(=O)c2ccc(C(F)(F)F)nc2n2nccc12)Nc1ccc(Cl)cn1 [Example 83, N-(5-Chloropyridin-2-yl)-2-(5-oxo-8-(trifluoromethyl)pyrazolo[1,5-a]pyrido[3,2-e]pyrimidin-4(5H)-yl)acetamide]	137	> 30000	
CC(C)c1cc2n(CC(=O)Nc3ccc(F)cn3)c(=O)c3ccc(C(F)(F)F)nc3n2n1 [Example 36, N-(5-Fluoropyridin-2-yl)-2-(2-isopropyl-5-oxo-8-(trifluoromethyl)pyrazolo[1,5-a]pyrido[3,2-e]pyrimidin-4(5H)-yl)acetamide]	185		
Cc1cc(-c2cc3n(CC(=O)Nc4ccc(F)cn4)c(=O)c4ccc(C(F)(F)F)nc4n3n2)c(C)cn1 [Example 40]	292	16700	
O=C(Cn1c(=O)c2ccc(C(F)(F)F)nc2n2nc(C(F)(F)F)cc12)Nc1ccc(F)cn1 [Example 66, N-(5-Fluoropyridin-2-yl)-2-(5-oxo-2,8-bis(trifluoromethyl)pyrazolo[1,5-a]pyrido[3,2-e]pyrimidin-4(5H)-yl)acetamide]	130		
COc1cc(C(C)C)c(Oc2cnc(N)nc2N)cc1S(N)(=O)=O [MK-7264]			selectivity to P2X3/P2X2/3 (P2X3/P2X2/3): low selectivity; side effects [1]: loss of taste
CC(C)(C)c1cc2n(CC(=O)Nc3ccc(F)cn3)c(=O)c3cccnc3n2n1 [Example 1, 2-(2-(Tert-butyl)-5-oxopyrazolo[1,5-a]pyrido[3,2-e]pyrimidin-4(5H)-yl)-N-(5-fluoropyridin-2-yl)acetamide]	16.2	64400	
CC(C)(C)c1cc2n(CC(=O)Nc3ccc(F)cn3)c(=O)c3ccc(C(F)(F)F)nc3n2n1 [Example 30, 2-(2-(Tert-butyl)-5-oxo-8-(trifluoromethyl)pyrazolo[1,5-a]pyrido[3,2-e]pyrimidin-4(5H)-yl)-N-(5-fluoropyridin-2-yl)acetamide]	88.2	14500	AUC(0-t) ([2]; read-out: Area under curve AUC0-t): 10900 ng·h/mL; MRT inf ([2]; read-out: Average residence time MRT0-∞): 2.16 h; half-life ([2]; read-out: Half life t1/2 (converted)): 1.36 h; Tmax ([2]; read-out: Peak time tmax): 0.5 h; Cmax ([2]; read-out: Plasma concentration Cmax): 3550 ng/mL

Further lines, with some results ahead:

IC50 (1321N1-hP2X3 receptor) [nM]	IC50 (1321N1-hP2X2/3 receptor) [nM]	Compound	also measured
385		O=C(Cn1c(=O)c2ccc(C(F)(F)F)nc2n2nc(C3CCCCC3)cc12)Nc1ccc(F)cn1 [Example 62, 2-(2-Cyclohexyl-5-oxo-8-(trifluoromethyl)pyrazolo[1,5-a]pyrido[3,2-e]pyrimidin-4(5H)-yl)-N-(5-fluoropyridin-2-yl)acetamide]	
259	32200	CC1(c2cc3n(CC(=O)Nc4ccc(F)cn4)c(=O)c4ccc(C(F)(F)F)nc4n3n2)CC1 [Example 59, N-(5-Fluoropyridin-2-yl)-2-(2-(1-methylcyclopropyl)-5-oxo-8-(trifluoromethyl)pyrazolo[1,5-a]pyrido[3,2-e]pyrimidin-4(5H)-yl)acetamide]	
34.7		O=C(Cn1c(=O)c2ccc(C(F)(F)F)nc2n2nc(Cl)cc12)Nc1ccc(F)cn1 [Example 79, 2-(2-Chloro-5-oxo-8-(trifluoromethyl)pyrazolo[1,5-a]pyrido[3,2-e]pyrimidin-4(5H)-yl)-N-(5-fluoropyridin-2-yl)acetamide]	
337		O=C(Cn1c(=O)c2ccc(C(F)(F)F)nc2n2nc(C3CCCC3)cc12)Nc1ccc(F)cn1 [Example 37, 2-(2-Cyclopentyl-5-oxo-8-(trifluoromethyl)pyrazolo[1,5-a]pyrido[3,2-e]pyrimidin-4(5H)-yl)-N-(5-fluoropyridin-2-yl)acetamide]	
77.7	> 30000	O=C(Cn1c(=O)c2ccc(C(F)(F)F)nc2n2nc(C3CC3)cc12)Nc1ccc(F)cn1 [Example 35, 2-(2-Cyclopropyl-5-oxo-8-(trifluoromethyl)pyrazolo[1,5-a]pyrido[3,2-e]pyrimidin-4(5H)-yl)-N-(5-fluoropyridin-2-yl)acetamide]	
203		O=C(Cn1c(=O)c2ccc(C(F)(F)F)nc2n2nc(C(=O)N3CCC3)cc12)Nc1ccc(F)cn1 [Example 74, 2-(2-(Azetidine-1-carbonyl)-5-oxo-8-(trifluoromethyl)pyrazolo[1,5-a]pyrido[3,2-e]pyrimidin-4(5H)-yl)-N-(5-fluoropyridin-2-yl)acetamide]	
